The target of assay [1] is T1, HIV protease I (Human immunodeficiency virus type 1 group M subtype B, UniProt P04585).
T1 construct: HIV-1 PR (15 μg/ml final concentration) was preincubated at 25 C
The following applies: covalent attachment to Cys95 at the dimer interfaces; Davis et al.; cited from earlier work.

The target in assay [2] is T2, HIV PR (Human immunodeficiency virus type 1 group M subtype B, UniProt P04585).
T2 construct: preincubating the tetrapeptide(s) with HIV PR then adding the disulfide
Description: Tetrapeptide library screen against glutathione or II on HIV PR (assay in Salto et al.). The format is biochemical. As to conditions: tetrapeptides preincubated with HIV PR, then disulfide added; (100 μM) printed; bind at the dimer interface. The protocol:
Targeting Cys95. […] Davis et al. Biochemistry 20:2482-2488 (1996). For quantification of the irreversible inactivation of HIV proteases by these disulfides, HIV-1 PR (15 μg/ml final concentration) was preincubated at 25 C in 50 mM HEPES (pH 8.0), 1M NaCl, 1 mM EDTA, 5% Me2SO in the presence of a 10 μM to 1 mM concentration of each inhibitor. At various times, aliquots were removed and assayed for activity. The rates of inactivation were calculated after Salto et al. J. Biol. Chem. 269:10691-10698 (1994).
Combinatorial libraries containing tetrapeptides were synthesized with free C and N termini using T, L, N, F, R, S, V, G, F Q, and H as amino acid residues randomly located at the four positions of P4P3P2P1 according to procedures well known in the art (Houghten, R. A. Annu. Rev. Pharmacol. Toxicol. 2000, 40:273-282 and references therein). The amino acids were either spatially separated or synthesized in 100 pools of 100 tetrapeptides. Libraries were screened against glutathione or II by preincubating the tetrapeptide(s) with HIV PR then adding the disulfide and waiting until time t^ has elapsed (the time required to inhibit 50-75% of the biological target molecule's activity) in the absence of the library.

Assay [3] addresses T2, HIV PR. Description: Octapeptide library screen against HIV PR with and without CuCl2. The format is biochemical. The following applies: non-substrate based inhibiting peptide; residual HIV PR activity measured after cupric ion scavenger. The protocol:
Combinatorial libraries of octapeptides were synthesized using T, L, N, F, S, G, F Q, V and I at positions 3-6 to generate 10,000 octapeptides. E and I occupied positions 1 and 2, respectively, and G, L occupied positions […], respectively. The C-terminus was in amide form, and the N terminus was in amino form. The peptide libraries were synthesized by standard procedures known in the art, Houghten, supra. The libraries were screened against HIV PR with and without CuCl2. CuCl2 was added to block 50-75% activity. Libraries were screened against CuCl2 by preincubating the tetrapeptide(s) with HIV PR, then adding CuCl2 at t0 and waiting until time tx has elapsed, the time required to inhibit 50-75% of enzyme activity in the absence of the library. At tx residual HIV PR activity was measured according to Danielson et al, supra, after adding cupric ion scavenger, namely, iminodiacetic.

Assay [4] has as its target HIV I protease (Human immunodeficiency virus type 1 group M subtype B, UniProt P04585). As to conditions: Danielson et al.; cited from earlier work.

Where no end group is shown, it is not given here.

These results are taken from patent US7927579B2, “Tandem analyses of noncovalently driven effectors for modulatory mapping of activities of protein sites” (priority 2003, dated 2011).

Regarding `O=C(O)c1cc(SSc2ccc([N+](=O)[O-])c(C(=O)O)c2)ccc1[N+](=O)[O-]` [5,5′-dithiobis(2-nitrobenzoic acid)], in assay [1], the “inactivation of HIV protease I by covalent attachment to Cys95” value is “inactivate HIV protease I”.

With “TLNL [tetrapeptide with free C and N termini from combinatorial library]”, the “activity in library screen against disulfide inactivation of HIV PR” value in assay [2] is “most active”.

In the case of `N[C@@H](CCC(=O)N[C@@H](CS)C(=O)NCC(=O)O)C(=O)O` [glutathione], in assay [1], the “inactivation of HIV protease I by covalent attachment to Cys95” value is given as “inactivate HIV protease I”.

As for “S-F-N-L (SFNL) [tetrapeptide with free C and N termini from combinatorial library]”, the “activity in library screen against disulfide inactivation of HIV PR” value in assay [2] is “most active”.

For LGQGVSIE-NH2, in assay [3], the “inhibitory activity against HIV PR” value is listed as “about 5 μM”.

Consider `[Cl][Cu][Cl]` [Cupric ions, CuCl2], for which, in assay [4], the “inactivation of HIV I protease by binding to Cys67 and His69” value is recorded as “specifically inactivate HIV I protease”.
